# Reference: ChEMBL document CHEMBL4017548, “Molecular Hybridization of Potent and Selective γ-Hydroxybutyric Acid (GHB) Ligands: Design, Synthesis, Binding Studies, and Molecular Modeling of Novel 3-Hydroxycyclopent-1-enecarboxylic Acid (HOCPCA) and trans-γ-Hydroxycrotonic Acid (T-HCA) Analogs” (J Med Chem, 2017)
# Test: Displacement of [3H]NCS-382 from GHB binding site in Sprague-Dawley rat brain synaptosomal membranes after 1 hr by scintillation counting method
Compound,Ki [µM],pKi
O=C(O)C1=CCCC1,31,4.51
O=C(O)C#CCO,4.3,5.5
O=C(O)C1=CC(O)CC1 (stereo not drawn),0.13 to 0.16,6.89
O=C(O)/C=C/C1(O)CCCCC1,4.3,5.37
O=C(O)C1=C(c2ccc(Cl)cc2)C(O)CC1 (stereo not drawn),70,4.16
O=C(O)C#CC1(O)CCC1,1.6,5.78
COc1ccc(C2=C(C(=O)O)CCC2O)cc1 (stereo not drawn),> 300,
O=C(O)C1=CC(c2ccccc2)CC1 (stereo not drawn),16,4.8
O=C(O)C1=CC(c2ccc(OCc3ccccc3)cc2)CC1 (stereo not drawn),1.6,5.77
CCC1=C(C(=O)O)CCC1O (stereo not drawn),> 300,
O=C(O)C1=CC(c2ccc(-c3ccccc3)cc2)CC1 (stereo not drawn),3.2,5.49
O=C(O)C1=C[C@H](O)CC1,0.11,
O=C(O)[C@@H]1CC[C@@](O)(c2ccccc2)C1,53,4.28
O=C(O)C1=C(c2ccccc2)C(O)CC1 (stereo not drawn),48,4.32
O=C(O)C#CC1(O)CCCCC1,7.7,5.12
O=C(O)C1=C(Cc2ccccc2)C(O)CC1 (stereo not drawn),38,4.43
O=C(O)C1CC(O)C1 (stereo not drawn),70,4.16
Cc1ccc(C2=C(C(=O)O)CCC2O)cc1 (stereo not drawn),157,3.81
O=C(O)/C=C/C1(O)CCCC1,3.1,5.51
O=C(O)C1=C(c2ccc(Cl)c(Cl)c2)C(O)CC1 (stereo not drawn),62,4.21
O=C(O)/C=C/C(O)c1ccc(OCc2ccccc2)cc1 (stereo not drawn),0.043,7.43

Compound,Ki [µM],pKi
COc1cccc(CC2=C(C(=O)O)CCC2O)c1 (stereo not drawn),46,4.43
O=C(O)C1=CC(c2ccccc2O)CC1 (stereo not drawn),4.6,5.34
CC1=C(C(=O)O)CCC1O (stereo not drawn),80,4.1
O=C(O)C1=C[C@@H](O)CC1,1.4,
O=C(O)C#CC1(O)CCCC1,2.7,5.57
O=C(O)[C@@H]1CC[C@@](O)(c2ccc(-c3ccccc3)cc2)C1,0.51,6.29
O=C(O)C1CCC(O)C1 (stereo not drawn),20,4.71
O=C(O)/C=C/C(O)c1ccc(OCc2ccc(Br)cc2)cc1 (stereo not drawn),0.023,7.64
O=C(O)/C=C/C1(O)CCC1,3.5,5.47
C=CCC1=C(C(=O)O)CCC1O (stereo not drawn),> 300,
O=C(O)/C=C/C(O)c1ccc(CCc2ccccc2)cc1 (racemic),0.042,7.39
O=C(O)/C=C/C(O)c1ccc(Cc2ccccc2)cc1 (racemic),0.042,7.38
O=C(O)C#CC(O)c1ccc(OCc2ccccc2)cc1 (racemic),1.6,5.8
O=C(O)/C=C/C(O)c1ccc(-c2ccccc2)cc1 (racemic),0.075,7.14
O=C(O)C#CC(O)Cc1ccccc1 (racemic),3.5,5.45
O=C(O)[C@@H]1CCC[C@@H](O)C1 (relative stereo),28,4.55
O=C(O)[C@H]1CCC[C@@H](O)C1 (relative stereo),35,4.45
O=C(O)[C@]12CC[C@@H](O)[C@H]1C2 (relative stereo),> 100,
"O=C(O)/C=C/C(O)c1ccc(Cc2ccccc2)cc1 (single isomer, unassigned; (+))",0.03,7.47
O=C(O)/C=C/C(O)c1ccc(Cc2ccccc2)cc1 (stereo in doubt; (-)-9e),1.16,5.97
O=C(O)CCCO [OXYBATE],3.6,5.44
